Test results: patent publication US20240279232A1, “USE OF SUBSTITUTED 5-(4-METHYL-6-PHENYL-4H-BENZO[F]IMIDAZO[1,5-A][1,4] DIAZEPIN-3-YL)-1,2,4-O[…] THE TREATMENT OF INFLAMMATORY CONDITIONS” (priority 2021, published 2024)

Legend:
[1] = tested on: GABAAR on immortalized mouse microglia; assay: Automated patch clamp, immortalized mouse microglia; format: cell-based; conditions: 1 mM GABA, mouse cells
Mouse microglia [2] = assay: NO production (Griess assay), LPS/IFNγ-activated mouse microglia; format: cell-based; conditions: for Inhibition of NO production (%) Mouse microglia 10 μM: 24 hours, 1 μM GABA, LPS/IFNγ
[3] = tested on: GABAAR on immortalized human microglia; assay: Automated patch clamp, immortalized human microglia; format: cell-based; conditions: 1 mM GABA, human cells
DOR (δ opioid receptor) = target: T1, DOR (δ opioid receptor) (Homo sapiens, UniProt P41143); assay: DOR radioligand binding ([3H]-DADLE, HEK293 cell homogenates); conditions: Percent inhibition at 10,000 nM; [3H]-DADLE
T1 construct: expressed in transfected cells; host or cells: HEK293
T1 sequence (P41143 whole entry): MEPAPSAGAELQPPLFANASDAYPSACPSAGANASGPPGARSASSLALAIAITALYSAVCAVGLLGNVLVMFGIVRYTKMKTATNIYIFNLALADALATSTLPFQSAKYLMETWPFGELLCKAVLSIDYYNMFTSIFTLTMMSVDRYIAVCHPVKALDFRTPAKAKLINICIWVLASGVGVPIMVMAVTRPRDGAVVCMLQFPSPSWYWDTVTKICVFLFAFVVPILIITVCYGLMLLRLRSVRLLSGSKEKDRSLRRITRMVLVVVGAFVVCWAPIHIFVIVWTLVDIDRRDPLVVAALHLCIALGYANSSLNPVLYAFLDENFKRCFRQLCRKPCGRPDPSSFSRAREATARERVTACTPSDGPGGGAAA

KOR (κ opioid receptor) = target: T2, KOR (κ opioid receptor) (Homo sapiens, UniProt P41145); assay: KOR radioligand binding ([3H]-U69593, HEK293 cell homogenates); conditions: [3H]-U69593
T2 construct: expressed in transfected cells; host or cells: HEK293 (stably transfected)
T2 sequence (P41145 whole entry): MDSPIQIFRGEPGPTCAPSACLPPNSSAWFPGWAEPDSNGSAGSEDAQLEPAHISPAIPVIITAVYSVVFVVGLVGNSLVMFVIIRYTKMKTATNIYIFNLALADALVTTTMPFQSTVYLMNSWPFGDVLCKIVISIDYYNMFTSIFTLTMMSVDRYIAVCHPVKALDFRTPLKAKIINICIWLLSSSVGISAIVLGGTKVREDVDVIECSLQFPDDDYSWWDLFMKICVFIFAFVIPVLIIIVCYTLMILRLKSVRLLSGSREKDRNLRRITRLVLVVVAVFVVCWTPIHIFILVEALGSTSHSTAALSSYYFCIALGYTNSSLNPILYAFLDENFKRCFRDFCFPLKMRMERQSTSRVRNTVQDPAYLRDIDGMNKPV

MOR (μ opioid receptor) = target: T3, MOR (μ opioid receptor) (Homo sapiens, UniProt P35372); assay: MOR radioligand binding ([3H]-DAMGO, HEK293 cell homogenates); conditions: [3H]-DAMGO
T3 construct: expressed in transfected cells; host or cells: HEK293
T3 sequence (P35372 whole entry, species assumed): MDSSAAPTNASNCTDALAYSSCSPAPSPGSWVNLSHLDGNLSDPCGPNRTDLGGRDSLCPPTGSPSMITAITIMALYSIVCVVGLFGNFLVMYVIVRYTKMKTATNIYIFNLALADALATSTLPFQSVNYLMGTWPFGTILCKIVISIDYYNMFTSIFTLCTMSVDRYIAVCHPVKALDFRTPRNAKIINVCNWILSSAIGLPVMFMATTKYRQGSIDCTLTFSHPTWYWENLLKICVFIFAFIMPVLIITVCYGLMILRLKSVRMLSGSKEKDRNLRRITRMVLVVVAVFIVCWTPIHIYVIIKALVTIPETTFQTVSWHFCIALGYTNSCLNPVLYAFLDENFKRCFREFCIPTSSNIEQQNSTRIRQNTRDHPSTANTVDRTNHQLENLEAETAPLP

[4] = tested on: BZR (benzodiazepine site of GABAAR); assay: GABAAR/BZR binding, rat brain homogenate with 3H-flunitrazepam; conditions: rat brain homogenate, 3H-flunitrazepam
Summary of the method: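 Primary screen at 10,000 nM; where displacement exceeded 50%, Ki came from nonlinear regression of concentration–response data (n=6). Radioligand was 3H-flunitrazepam at roughly Kd on rat brain homogenate, usually 90 min, room temperature, dark, with 10 μM reference compound for nonspecific binding, then filtration and scintillation counting.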

human KOR = target: T4, human KOR (Homo sapiens, UniProt P41145); assay: BRET recruitment assay (GαoA) in HEK293T cells; format: cell-based; conditions: for KOR agonism (in words): BRET recruitment assay
T4 construct: expressed in transfected cells; host or cells: HEK293T
T4 sequence (P41145 whole entry): as the sequence (P41145 whole entry) above
T4 sequence (P09471 2-354 partner limits assumed): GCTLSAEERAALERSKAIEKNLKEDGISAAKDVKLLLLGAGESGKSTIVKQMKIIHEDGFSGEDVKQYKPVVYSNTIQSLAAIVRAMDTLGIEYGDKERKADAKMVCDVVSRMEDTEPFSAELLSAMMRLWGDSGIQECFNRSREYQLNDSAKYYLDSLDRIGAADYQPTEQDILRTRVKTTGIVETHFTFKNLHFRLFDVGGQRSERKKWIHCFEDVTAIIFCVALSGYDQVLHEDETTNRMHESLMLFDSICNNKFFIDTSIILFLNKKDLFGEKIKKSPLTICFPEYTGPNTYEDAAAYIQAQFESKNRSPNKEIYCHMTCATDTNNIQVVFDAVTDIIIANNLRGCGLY
T4 sequence (P16520 whole entry partner): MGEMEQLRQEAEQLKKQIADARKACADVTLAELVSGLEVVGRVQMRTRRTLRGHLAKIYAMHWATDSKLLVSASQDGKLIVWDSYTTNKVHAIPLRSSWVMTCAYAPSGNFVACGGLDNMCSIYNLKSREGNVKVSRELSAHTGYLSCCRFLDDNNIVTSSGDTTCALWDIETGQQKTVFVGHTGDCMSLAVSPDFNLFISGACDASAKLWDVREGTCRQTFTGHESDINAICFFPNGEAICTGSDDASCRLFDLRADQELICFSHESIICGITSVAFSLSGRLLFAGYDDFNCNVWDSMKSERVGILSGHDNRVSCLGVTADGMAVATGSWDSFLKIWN
T4 sequence (Q9UK08 1-67 partner limits assumed): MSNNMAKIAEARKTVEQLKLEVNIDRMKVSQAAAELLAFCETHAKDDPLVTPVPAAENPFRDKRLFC
Experimental: HEK293 cells were transfected with GαoA-RLuc, Gβ3, Gγ8-GFP2 and human KOR and treated with increasing concentrations of GL-I-30 or full agonist salvinorin A.
The BRET recruitment assays were performed in HEK293T cells according to previously reported procedures with minor modifications. Briefly, the cells were co-transfected overnight with GαoA-RLuc, Gβ3, Gγ8-GFP2 and human KOR receptor at a 1:1:1:1 ratio. The next day, cells were seeded (˜40,000 cells/well) into poly-L-Lysine coated 96-well white clear bottom cell culture plates in DMEM containing 1% dialyzed FBS. 24 hours later, the 96-well plates bottom were covered with white backing (PerkinElmer) and the culture medium was removed. Immediately, the cells were washed with 80 μL/well of assay buffer (1× HBSS, 20 mM HEPES, 1 mg/ml BSA, pH 7.4). Then the cells were treated with 80 μL of drugs in assay buffer for 10 min at room temperature, follow by addition of 20 μL/well of RLuc substrate and incubated for another 10 min. Plates were read in a Mithras LB940 reader for the RLuc Luminescence (400 nm) and GFP2 (515 nm) emission and the ratio of GFP2/RLuc (n=24) was analyzed by non-linear regression using GraphPad Prism 8.

Mouse microglia [5] = assay: Cell viability (CellTiter-Glo), mouse microglia; format: cell-based; conditions: 50 μM, CellTiter-Glo
Summary of the method: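 Mouse microglia (1×10^6 cells/mL) activated with 50 ng/ml LPS plus 150 U/mL IFNγ, incubated with compounds ~24 h at 37° C. Viability of remaining cells read by CellTiter-Glo luminescence after supernatant removal for Griess NO assay; […].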

HEK293 = assay: Viability assay (CellTiter-Glo), HEK293; format: cell-based, human; conditions: 120 μM, CellTiter-Glo
RAW macrophages [6] = assay: NO production (Griess assay), LPS/IFNγ-activated RAW264.7 macrophages; format: cell-based, mouse; conditions: for Inhibition of NO production (%) RAW macrophages 10 μM: 24 hours, 1 μM GABA, LPS/IFNγ
RAW macrophages [7] = assay: Cell viability (CellTiter-Glo), RAW macrophages; format: cell-based, mouse; conditions: CellTiter-Glo
HEPG2 = assay: Viability assay (CellTiter-Glo), HEPG2; format: cell-based, human; conditions: 120 μM, CellTiter-Glo
Swiss Webster mice [8] = assay: Rotarod test; conditions: 5 mg/kg
Swiss Webster mice [9] = assay: Formalin test; format: in vivo, mouse; conditions: orally; GL-IV-03 10 mg/kg; ketoprofen 30 mg/kg
Experimental: Webster mice were treated orally four days in advance with indicated compounds and doses before the injection of 2% formalin in the right hind paw. Mice were evaluated during the first 5 min (phase 1) and after 20 minutes (phase 2) for 5 minutes in 5 seconds intervals Licking and biting the right hind paw during a 5 second interval was noted and combined as total time addressing the injected paw. Data is given as mean with SEM (n =8). ** indicate p<0.01 (unpaired t-test).
The antinociceptive effect of GL-IV-03 was investigated with the formalin test. Paw injections of formalin elicited a biphasic pain response separated in time (1-5 minutes and 20-60 minutes). […] Sensorimotor impairment and sedation were investigated with mice that were trained to balance on a rotating rod over a period of three minutes (rotarod). The amount of time that mice remained balanced on the rod after intraperitoneal (i.p.) and oral (p.o.) treatment with GL-IV-03 and MP-IV-010 is summarized in FIG. 7B-7C. […] The effect was similar to non-steroidal anti-inflammatory drug ketoprofen at 30 mg/kg. Sedation and inhibition of sensorimotor coordination can influence licking and biting pain behaviors, prompting rotarod studies for GL-IV-03 and MP-IV-010. […] In contrast to diazepam, a benzodiazepine with high affinity for the α1β2/3γ2 and other GABAAR subtypes, was sedating at 5 mg/kg.
Formalin test. […]

[10] = Percent inhibition at 10,000 nM

Row | SMILES | Cell viability (%) Mouse microglia 50 μM (Mouse microglia [5]) | Inhibition of NO production (%) Mouse microglia 10 μM (Mouse microglia [2]) | Cell viability (%) HEK293 120 μM (HEK293) | Inhibition of NO production (%) RAW macrophages 10 μM (RAW macrophages [6]) | Cell viability (%) RAW macrophages 50 μM (RAW macrophages [7]) | Cell viability (%) HEPG2 120 μM (HEPG2) | further results
1 | NCCCC(=O)O [GABA] |  |  |  |  |  |  | maximum current response [1]: 1514 pA; NO production of activated microglia (in words) (Mouse microglia [2]; dexamethasone 100 nM, GABA 1 μM, MP-IV-010 50 μM, GL-II-33 in the library screen): no effect; maximum current response [3]: 1245 pA
2 | C#Cc1ccc2c(c1)C(c1ccccc1F)=NC(C)c1c(C(=O)OC(C)(C)C)ncn1-2 (stereo not drawn) [GL-I-30] |  |  |  |  |  |  | DOR % (DOR (δ opioid receptor)): 7%; KOR % (KOR (κ opioid receptor); [10]): 95%; Ki (KOR (κ opioid receptor); concentration-dependent, read-out: KOR (Ki)): 27 nM; MOR % (MOR (μ opioid receptor); [10]): 54%; Ki (MOR (μ opioid receptor); read-out: MOR affinity Ki): 1850 nM; BZR % [4, 10]: 96%; Ki [4]: 177 nM; KOR agonism (in words) (human KOR): full KOR agonism; KOR agonism (in words) (human KOR; listed as GL-1-30): full KOR agonist; efficacy in comparison to full agonist salvinorin A (human KOR; BRET, HEK293T cells): 100%; EC50 (human KOR; BRET, HEK293T cells, read-out: EC50, recruitment of GαoA protein to KOR): 32.3 nM
3 | CCOC(=O)c1ncn2c1CN=C(c1ccccn1)c1cc(C3CC3)ccc1-2 [GL-IV-05] | 88 ± 12% | 59 ± 4% | 47 ± 3% | 14 ± 3% | 100 ± 6% | 100 ± 10% | 
4 | C#Cc1ccc2c(c1)C(c1ccccc1F)=NC(C)c1c(C(=O)[O-])ncn1-2.[Na+] (stereo not drawn) [GL-IV-17] | 89 ± 9% | 41 ± 5% | 67 ± 5% | 5 ± 5% | 100 ± 5% | 93 ± 8% | 
5 | CC1N=C(c2ccccc2F)c2cc(Br)ccc2-n2cnc(C(=O)[O-])c21.[Na+] (stereo not drawn) [GL-IV-18] | 81 ± 10% | 63 ± 9% | 88 ± 5% | 10 ± 7% | 98 ± 5% | 80 ± 14% | 
6 | C#Cc1ccc2c(c1)C(c1ccccc1F)=N[C@H](C)c1c(-c3nc(CC)no3)ncn1-2 [MP-IV-005, (R)-3-ethyl-5-(8-ethynyl-6-(2-fluorophenyl)-4-methyl-4H-benzo[f]imidazo[1,5-a][1,4]diazepin-3-yl)-1,2,4-oxadiazole] | 86 ± 13% |  | 68 ± 14% |  | 86 ± 14% | 98 ± 8% | inhibition at 10 µM (Mouse microglia [2]; Mus musculus, Microglia, 24 h): 45 ± 3%; inhibition at 50 µM (Mouse microglia [2]; Mus musculus, Microglia, 24 h): 89 ± 17%; inhibition at 10 µM (RAW macrophages [6]; Mus musculus, Macrophage, 24 h): 5 ± 3%; inhibition at 50 µM (RAW macrophages [6]; Mus musculus, Macrophage, 24 h): 59 ± 9%
7 | C#Cc1ccc2c(c1)C(c1ccccc1)=NCC(=O)N2C [QH-II-66] | 97 ± 11% | 54 ± 9% | 81 ± 2% | 17 ± 6% | 100 ± 12% | 100 ± 4% | 
8 | CN1C(=O)CN=C(c2ccccc2)c2cc(Cl)ccc21 [diazepam, reference compound] |  |  |  |  |  |  | sedation (rotarod) (Swiss Webster mice [8]): sedating
9 | CC(C(=O)O)c1cccc(C(=O)c2ccccc2)c1 (stereo not drawn) [ketoprofen, reference compound] |  |  |  |  |  |  | antinociceptive effect, formalin test (phase 1 and 2) (Swiss Webster mice [9]): similar
